Km data for one compound are collected here from publication PMC10053118, “Laccase Production from Agrocybe pediades: Purification and Functional Characterization of a Consistent Laccase Isoenzyme in Liquid Culture” (Microorganisms, 2023).

This assay deals with T1, extracellular laccase (laccI) of A. pediades.
T1 construct: native, partially purified from culture filtrate (Sephacryl 200), glycosylated monomer, 72 kDa native, 55-60 kDa denatured
The experiment in a line: spectrophotometric oxidation at […] nm, Michaelis-Menten nonlinear fit. The conditions noted are these: pH 5.0; 0-2 mM substrate; air oxygen as co-substrate; read-out: apparent Km. Format: biochemical, Agrocybe pediades.

The Km is the substrate concentration at which the rate is half of its maximum. Turning to `COc1cccc(OC)c1O` [2,6-DMP, 2,6-dimethoxyphenol], the Km is 100 µM.
